Measurements: patent US10501460B2, “Heterocyclic compounds and uses thereof” (Plexxikon Inc., priority 2013, dated 2019)
pIC50: −log10 of the molar value.

Key:
bromodomain = assay: Bromodomain cell assays of Example 40 (at least one of them); type: cell-based; details: in at least one of the bromodomain cell assays described in Example 40
Method in brief: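 Growth inhibition: 3000 MV-4-11, MOLM-13, MM.1S or neuroblastoma cells/well got an 8-point 1:3 series from 10 μM top (0.2% DMSO) for 72 h, then CellTiter-Glo luminescence. Myc reporter: MV-4-11 with E-box firefly luciferase, 24 h exposure, One-Glo luminescence plus CellTiter-Fluo cell count. pIC50 from four-parameter fit.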

BRD4-BD1 (44-164) = biological target: T1, BRD4-BD1 (44-164) (Homo sapiens, UniProt O60885); assay: Alphascreen binding assay BRD4-BD1 (BRD4 biochemical inhibitory activity); details: read-out: Biochemical activity (IC50 μM) BRD4(1) H4
T1 construct: BRD4-BD1 (44-164); made in house; host or cells: E. coli BL21-CodonPlus (DE3)
Procedure: Binding of compounds of formula (I) with bromodomain 2, 3 4 was assessed using Alphascreen binding assay. The inhibition of the interaction between bromodomain and its acetylated target protein (Filippakopoulos P et al. 2012) was measured quantitatively using recombinant BRD proteins, an acetylated Histone 4 peptide and AlphaScreen™ technology. In absence of inhibition the BRD protein bound to AlphaScreen™ nickel chelate acceptor beads can interact with the acetylated Histone 4 peptide which is immobilized by the AlphaScreen™ Streptavidin coated beads. This interaction brings donor and acceptor beads in proximity. The close proximity allows the singlet oxygen produced by laser excitation of the donor beads to reach the acceptor beads and generate a luminescence signal. BRD inhibitors result in a decrease in the proximity signal through an inhibition of the BRD—acetylated peptide interaction.
Recombinant human bromodomains containing the N-terminal bromodomain (BRD2-BD1 (71-194), BRD3-BD1 (24-144) and BRD4-BD1 (44-164)) or dual bromodomains (BRD4-BD12 (1-477), BRD4-BD12 (1-472)) were prepared and purified as described in protein expression and purification session. The peptide is human Histone H41-21K5AcK8AcK12AcK16Ac-Biotin (Anaspec Calif., USA).
Protocol for BRD2, BRD3 and BRD4 assay: All components are prepared in buffer composed of 50 mM HEPES pH 7.5, 100 mM NaCl, 0.01% bovine serum albumin (“BSA”), 0.01% Triton X-100, 2 mM dithiothreitol (“DTT”). 7 μL of Bromodomain protein and 7 μL of peptide are added to wells containing 1 μL of various concentrations of test compounds of formula (I) or DMSO vehicle in an Alphaplate (PerkinElmer Ga., USA) and incubated for 1 hour at room temperature. 4 μL donor and acceptor bead mixture is then added with final concentrations of 7.5 μg/ml. 30 minutes after bead addition, Alpha signal is read on the Envision spectrometer ([…]Ex 680 nm, […]Em 520-620 nm). Final concentrations of bromodomain proteins and peptide are as shown below.
All data was normalized to the mean of 16 high and 16 low control wells on each plate. A four parameter curve fit of the following formula was then applied: Y=a+(b−a)/(1+(x/c)^d) Where ‘a’ is the minimum, ‘b’ is the maximum, ‘c’ is the pIC50 and ‘d’ is the Hill slope. Protein Expression and Purification
Recombinant human bromodomains containing the N-terminal bromodomain (BRD2-BD1 (71-194), BRD3-BD1 (24-144) and BRD4-BD1 (44-164)) or dual bromodomains (BRD4-BD12 (1-477), BRD4-BD12 (1-472)) were expressed in E. coli cells (in a modified pET vector) with an N-terminal six-His tag and purified using a combination of both IMAC (Ni-affinity) and size exclusion chromatography steps.
Recombinant BRD proteins were expressed using the E. coli strain BL21-CodonPlus (DE3) (Agilent Technologies Calif., USA). Cells were grown in Terrific Broth (TB) media to an OD600 of 1.2 at 37° C. at which temperature was reduced to 25° C., protein was induced with 1.0 mM ispropyl-β-D-thiogalactopyranoside (“IPTG”) for 12-18 hours and harvested by centrifugation at 8000×g for 20 minutes. Cells were re-suspended in 0.1M K2PO4 pH 8.0, 250 mM NaCl, 10% Glycerol, 0.75% NP-40, 25 mM Imidazole, 5 mM beta-mercaptoethanol (“BME”) with 0.2 mg/ml Lysosyme, 2.0 mM phenylmethanesulfonyl fluoride (“PMSF”), 25 μg/ml DNAse I, incubated on ice for 30 minutes and lyzed with a cell disruptor (MicroFluidics Mass., USA). The lysate was clarified by centrifugation at 20,000×g for 2 hours. The protein was captured with Ni-NTA resin (Life Technologies, USA). Contaminating proteins were washed off with 25 mM Tris-HCl pH 8.3, 250 mM NaCl, 12% Glycerol and 50 mM Imidazole. Following 3× wash steps, protein was eluted step wise using a 50 mM HEPES pH 7.5, 500 mM NaCl and 400 mM Imidazole. The protein was further purified using Gel Filtration column 26/600 Superdex 200 (GE Biosciences NJ, USA) in 50 mM HEPES pH 7.5, 250 mM NaCl. The protein was aliquoted and flash-frozen in liquid Nitrogen. […]

Cc1noc(C)c1-c1cnc2[nH]c(-c3ccccc3)cc2c1 [P-0001, 3,5-dimethyl-4-(2-phenyl-1H-pyrrolo[2,3-b]pyridin-5-yl)isoxazole] showed a pIC50 (bromodomain) greater than 5.00 and an IC50 (BRD4-BD1 (44-164)) of 1 to 10 µM.

Compound Cc1noc(C)c1-c1ccc2[nH]ccc2c1 [P-0002, 4-(1H-indol-5-yl)-3,5-dimethyl-isoxazole] has a pIC50 (bromodomain) greater than 5.00 and an IC50 (BRD4-BD1 (44-164)) of 1 to 10 µM.

Cc1noc(C)c1-c1cnc2[nH]cc(C(=O)c3cccnc3)c2c1 [P-0004, [5-(3,5-dimethylisoxazol-4-yl)-1H-pyrrolo[2,3-b]pyridin-3-yl]-(3-pyridyl)methanone] gave a pIC50 (bromodomain) greater than 5.00 and an IC50 (BRD4-BD1 (44-164)) of 1 to 10 µM.

In the case of Cc1noc(C)c1-c1cnc2[nH]c(C)c(C(=O)c3cccnc3)c2c1 [P-0006, [5-(3,5-dimethylisoxazol-4-yl)-2-methyl-1H-pyrrolo [2,3-b]pyridin-3-yl]-(3-pyridyl)methanone], the pIC50 (bromodomain) was greater than 5.00 and the IC50 (BRD4-BD1 (44-164)) was 1 to 10 µM.

For Cc1noc(C)c1-c1cnc2[nH]c(-c3ccc(F)cc3)c(C(=O)c3cccnc3)c2c1 [P-0008, [5-(3,5-dimethylisoxazol-4-yl)-2-(4-fluorophenyl)-1H-pyrrolo[2,3-b]pyridin-3-yl]-(3-pyridyl)methanone], the pIC50 (bromodomain) was greater than 5.00 and the IC50 (BRD4-BD1 (44-164)) was 1 to 10 µM.

Cc1noc(C)c1-c1ccc2[nH]cc(CCN3CCCC3)c2c1 [P-0010, 3,5-dimethyl-4-[3-(2-pyrrolidin-1-ylethyl)-1H-indol-5-yl]isoxazole] gave a pIC50 (bromodomain) greater than 5.00 and an IC50 (BRD4-BD1 (44-164)) of 1 to 10 µM.

In the case of Cc1noc(C)c1-c1cnc2[nH]cc(Cc3ccc(C(F)(F)F)cc3)c2c1 [P-0015, 3,5-dimethyl-4-[3-[[4-(trifluoromethyl)phenyl]methyl]-1H-pyrrolo[2,3-b]pyridin-5-yl]isoxazole], the pIC50 (bromodomain) was greater than 5.00 and the IC50 (BRD4-BD1 (44-164)) was 1 to 10 µM.

With Cc1noc(C)c1-c1cnc2[nH]cc(C(=O)c3ccc(C(F)(F)F)cc3)c2c1 [P-0016, [5-(3,5-dimethylisoxazol-4-yl)-1H-pyrrolo[2,3-b]pyridin-3-yl]-[4-(trifluoromethyl)phenyl]methanone] the pIC50 (bromodomain) was greater than 5.00 and the IC50 (BRD4-BD1 (44-164)) was 1 to 10 µM.

In the case of Cc1noc(C)c1-c1cnc2cc[nH]c2c1 [P-0018, 3,5-dimethyl-4-(1H-pyrrolo[3,2-b]pyridin-6-yl)isoxazole], the pIC50 (bromodomain) was greater than 5.00 and the IC50 (BRD4-BD1 (44-164)) was 1 to 10 µM.

Compound CCc1[nH]c2ncc(-c3c(C)noc3C)cc2c1Cc1cccc(OC(F)(F)F)c1 [P-0050, 4-[2-ethyl-3-[[3-(trifluoromethoxy)phenyl]methyl]-1H-pyrrolo[2,3-b]pyridin-5-yl]-3,5-dimethyl-isoxazole] has a pIC50 (bromodomain) greater than 5.00 and an IC50 (BRD4-BD1 (44-164)) of 10 to 200 µM.

With COc1ccccc1S(=O)(=O)n1ccc2ncc(-c3c(C)noc3C)cc21 [P-0065, 4-[1-(2-methoxyphenyl)sulfonylpyrrolo[3,2-b]pyridin-6-yl]-3,5-dimethyl-isoxazole] the pIC50 (bromodomain) was greater than 5.00 and the IC50 (BRD4-BD1 (44-164)) was 1 to 10 µM.

With Cc1noc(C)c1-c1cnc2ccn(S(=O)(=O)N3CCCC3)c2c1 [P-0068, 3,5-dimethyl-4-(1-pyrrolidin-1-ylsulfonylpyrrolo [3,2-b]pyridin-6-yl)isoxazole] the pIC50 (bromodomain) was greater than 5.00 and the IC50 (BRD4-BD1 (44-164)) was 1 to 10 µM.

Work on COC(c1c[nH]c2cc(-c3c(C)noc3C)cnc12)C1CC1 (stereo not shown) [P-0069] yielded a pIC50 (bromodomain) greater than 5.00 and an IC50 (BRD4-BD1 (44-164)) of 1 to 10 µM.

With Cc1noc(C)c1-c1cnc2c(CC3CC3)c[nH]c2c1 [P-0070, 4-[3-(cyclopropylmethyl)-1H-pyrrolo[3,2-b]pyridin-6-yl]-3,5-dimethyl-isoxazole] the pIC50 (bromodomain) was greater than 5.00 and the IC50 (BRD4-BD1 (44-164)) was 1 to 10 µM.

In the case of Cc1noc(C)c1-c1cnc2c(I)c[nH]c2c1 [P-0072, 4-(3-iodo-1H-pyrrolo[3,2-b]pyridin-6-yl)-3,5-dimethyl-isoxazole], the pIC50 (bromodomain) was greater than 5.00 and the IC50 (BRD4-BD1 (44-164)) was 1 to 10 µM.

With Cc1noc(C)c1-c1cnc2c(CC3CC3)cn(S(=O)(=O)CCC(F)(F)F)c2c1 [P-0074, 4-[3-(cyclopropylmethyl)-1-(3,3,3-trifluoropropylsulfonyl)pyrrolo[3,2-b]pyridin-6-yl]-3,5-dimethyl-isoxazole] the pIC50 (bromodomain) was greater than 5.00 and the IC50 (BRD4-BD1 (44-164)) was 1 to 10 µM.

Work on Cc1noc(C)c1-c1cnc2c(C#N)cn(S(=O)(=O)c3ccccc3)c2c1 [P-0081, 1-(benzenesulfonyl)-6-(3,5-dimethylisoxazol-4-yl)pyrrolo[3,2-b]pyridine-3-carbonitrile] yielded a pIC50 (bromodomain) greater than 5.00 and an IC50 (BRD4-BD1 (44-164)) of no more than 1 µM.

Compound Cc1noc(C)c1-c1cnc2c(C#N)c[nH]c2c1 [P-0082, 6-(3,5-dimethylisoxazol-4-yl)-1H-pyrrolo[3,2-b]pyridine-3-carbonitrile] has a pIC50 (bromodomain) greater than 5.00 and an IC50 (BRD4-BD1 (44-164)) of 1 to 10 µM.

Cc1noc(C)c1-c1cnc2[nH]cc(I)c2c1 [P-0086, 4-(3-iodo-1H-pyrrolo[2,3-b]pyridin-5-yl)-3,5-dimethyl-isoxazole] was tested, and the pIC50 (bromodomain) was greater than 5.00 and the IC50 (BRD4-BD1 (44-164)) was 1 to 10 µM.

Cc1noc(C)c1-c1cnc2c(c1)c(I)cn2S(=O)(=O)c1ccccc1 [P-0087, 4-[1-(benzenesulfonyl)-3-iodo-pyrrolo[2,3-b]pyridin-5-yl]-3,5-dimethyl-isoxazole] gave a pIC50 (bromodomain) greater than 5.00 and an IC50 (BRD4-BD1 (44-164)) of 1 to 10 µM.

[2H]C([2H])([2H])n1cc(I)c2cc(-c3c(C)noc3C)cnc21 [P-0088, 4-[3-iodo-1-(trideuteriomethyl)pyrrolo[2,3-b]pyridin-5-yl]-3,5-dimethyl-isoxazole] was tested, and the pIC50 (bromodomain) was greater than 5.00 and the IC50 (BRD4-BD1 (44-164)) was 1 to 10 µM.

Cc1noc(C)c1-c1cnc2c(c1)c(C(O)C1CCS(=O)(=O)CC1)cn2S(=O)(=O)c1ccccc1 (stereo not shown) [P-0094, [1-(benzenesulfonyl)-5-(3,5-dimethylisoxazol-4-yl)pyrrolo[2,3-b]pyridin-3-yl]-(1,1-dioxothian-4-yl)methanol] was tested, and the pIC50 (bromodomain) was greater than 5.00 and the IC50 (BRD4-BD1 (44-164)) was 1 to 10 µM.

Cc1noc(C)c1-c1cnc2c(c1)c(C(F)C1CCS(=O)(=O)CC1)cn2S(=O)(=O)c1ccccc1 (stereo not shown) [P-0095, 4-[[1-(benzenesulfonyl)-5-(3,5-dimethylisoxazol-4-yl)pyrrolo[2,3-b]pyridin-3-yl]-fluoro-methyl]thiane 1,1-dioxide] showed a pIC50 (bromodomain) greater than 5.00 and an IC50 (BRD4-BD1 (44-164)) of 1 to 10 µM.

Cc1noc(C)c1-c1cnc2c(c1)c(CC1CCS(=O)(=O)CC1)cn2S(=O)(=O)c1ccccc1 [P-0096, 4-[[1-(benzenesulfonyl)-5-(3,5-dimethylisoxazol-4-yl)pyrrolo[2,3-b]pyridin-3-yl]methyl]thiane 1,1-dioxide] showed a pIC50 (bromodomain) greater than 5.00 and an IC50 (BRD4-BD1 (44-164)) of 1 to 10 µM.

For Cc1noc(C)c1-c1cnc2c(I)cn([Si](C(C)C)(C(C)C)C(C)C)c2c1 [P-0130, [6-(3,5-dimethylisoxazol-4-yl)-3-iodo-pyrrolo[3,2-b]pyridin-1-yl]-triisopropyl-silane], the pIC50 (bromodomain) was greater than 5.00 and the IC50 (BRD4-BD1 (44-164)) was 1 to 10 µM.

Work on Cc1noc(C)c1-c1cnc2c(C(=O)O)cn(S(=O)(=O)c3ccccc3)c2c1 [P-0169, 1-(benzenesulfonyl)-6-(3,5-dimethylisoxazol-4-yl)pyrrolo[3,2-b]pyridine-3-carboxylic acid] yielded a pIC50 (bromodomain) greater than 5.00 and an IC50 (BRD4-BD1 (44-164)) of no more than 1 µM.
